Source: publication PMC10870767, “Extraction, Purification, and Characterization of Olive (Olea europaea L., cv. Chemlal) Polyphenol Oxidase” (Journal of Agricultural and Food Chemistry, 2024)
Values joined by “and” are separate entries in the source; they are usually repeats but may differ in a detail not shown here. Equal entries are not always repeated. Where two headings read alike, the source gives them in different places.

Legend:
[1] = system: OePPO1; assay: Effect of metal ions on OePPO1 activity; format: biochemical, Olea europaea L., cv. Chemlal
[2] = system: mango PPO; conditions: cited from earlier work; for residual activity: 10 mM inhibitor
[3] = system: apricot PPO; conditions: cited from earlier work; for residual activity: 10 mM inhibitor
[4] = system: blueberry PPO; parameters: method as in PMID 27719900; conditions: cited from earlier work
[5] = biological target: T1, olive polyphenol oxidase (OePPO) (Olea europaea, UniProt A0A8S0TLT4); assay: Effect of inhibitors on OePPO activity; format: biochemical, Olea europaea L., cv. Chemlal; conditions: 10 mM catechol; for IC100: read-out: concentration for complete suppression/inhibition of OePPO activity
T1 sequence (A0A8S0TLT4 entry or part of it): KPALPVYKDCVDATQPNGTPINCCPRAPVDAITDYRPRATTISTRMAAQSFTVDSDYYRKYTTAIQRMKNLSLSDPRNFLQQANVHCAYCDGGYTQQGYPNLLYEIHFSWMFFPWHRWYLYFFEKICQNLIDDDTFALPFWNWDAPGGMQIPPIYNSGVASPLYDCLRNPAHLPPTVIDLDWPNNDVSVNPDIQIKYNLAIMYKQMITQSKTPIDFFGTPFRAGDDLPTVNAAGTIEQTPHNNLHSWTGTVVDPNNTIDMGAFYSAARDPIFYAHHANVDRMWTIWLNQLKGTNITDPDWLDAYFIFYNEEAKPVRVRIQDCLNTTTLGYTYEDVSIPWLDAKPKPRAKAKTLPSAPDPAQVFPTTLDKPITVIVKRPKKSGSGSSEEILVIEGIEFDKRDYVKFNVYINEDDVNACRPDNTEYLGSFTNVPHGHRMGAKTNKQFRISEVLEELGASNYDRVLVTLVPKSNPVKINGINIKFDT
Description: (§1) OePPO activity measurements were carried out spectrophotometrically at 25 °C using a 96-well microplate reader (Infinite M200, Tecan). The assay mixture, with a volume of 200 μL, was monitored for the increase in absorbance at 410 nm as the enzyme converted catechol, starting from ∼25 s after mixing (time required for pipetting and initiating the microplate reader) and continuing until the reaction curve reached a plateau phase (after ∼15 min). The standard reaction mixture consisted of 0.5 μg of enzyme and 10 mM catechol in 50 mM sodium phosphate buffer (pH 7.5) along with the optimal concentration of SDS (5 mM) as determined. […] OePPO activity was assessed by calculating the slope of the initial linear segment of the experimental curves, where the absorbance was plotted against time. The activity was expressed in U/mg, with one unit of enzymatic activity (U) defined as the amount of enzyme that catalyzed the formation of 1 μmol of quinones per minute (1 U = 1 μmol/min). All experiments were conducted in triplicate, and the protein concentrations in the enzyme solutions were determined using the Bradford method[15] with bovine serum albumin as a standard.
The optimum concentration range for each inhibitor was established through preliminary experiments (data not shown). OePPO activity was measured using the same assay conditions previously described, and the results were expressed as the percentage of residual activity relative to the control mixture (100%) without inhibitors. The half inhibitory concentration (IC50) was determined for each inhibitor using nonlinear regression.

[6] = biological target: T1, olive polyphenol oxidase (OePPO); assay: Effect of SDS on OePPO activity (activation of latent enzyme); format: biochemical, Olea europaea L., cv. Chemlal
Description: as §1
The effect of different concentrations of SDS (0–100 mM) on OePPO activity was investigated.

[7] = system: banana PPO; parameters: method as in doi:10.1021/jf980473d; conditions: cited from earlier work
[8] = biological target: T1, olive polyphenol oxidase (OePPO); assay: Enzyme kinetics and substrate specificity of purified OePPO; format: biochemical, Olea europaea L., cv. Chemlal; conditions: for kcat: substrate of purified OePPO, 50 mM sodium phosphate buffer pH 7.5, 5 mM SDS, 25 °C
Description: as §1

[9] = 1 mM metal salt, 50 mM sodium citrate buffer, 5 mM SDS, control without metal ions = 100%
[10] = 5 mM metal salt, 50 mM sodium citrate buffer, 5 mM SDS, control without metal ions = 100%
[11] = 10 mM metal salt, 50 mM sodium citrate buffer, 5 mM SDS, control without metal ions = 100%
[12] = 100 mM metal salt, 50 mM sodium citrate buffer, 5 mM SDS, control without metal ions = 100%

In the case of `[Cl][Al]([Cl])[Cl]` [AlCl3], the relative activity [1, 9] is reported as 98 ± 1.9%, the relative activity [1, 10] is reported as 90 ± 1.2% and the relative activity [1, 11] is reported as 82 ± 2.7%. It also gave a relative activity [1, 12] of 0.0 ± 0.00%.

`[Ca+2].[Cl-].[Cl-]` [CaCl2] showed a relative activity [1, 9] of 103 ± 2.0%, a relative activity [1, 10] of 96 ± 2.8% and a relative activity [1, 11] of 93 ± 2.9%. For the same compound, the relative activity [1, 12] was 66 ± 4.1%.

With `[Cl][Cr]([Cl])[Cl]` [CrCl3] the relative activity [1, 9] was 80 ± 2.8%, the relative activity ([1]; 1 mM metal salt, 50 mM sodium citrate buffer, 5 mM SDS, control without metal ions = 100%, listed as Cr^3+) was 80% and the relative activity [1, 10] was 63 ± 1.6%. For the same compound, the relative activity [1, 11] was 0.0 ± 0.00%, the relative activity ([1]; 10 mM metal salt, 50 mM sodium citrate buffer, 5 mM SDS, control without metal ions = 100%, listed as Cr^3+) was “complete suppression” and the relative activity [1, 12] was 0.0 ± 0.00%.

With `O=S(=O)([O-])[O-].[Cu+2]` [CuSO4] the relative activity [1, 9] was 106 ± 4.3%, the relative activity [1, 10] was 112 ± 1.9% and the relative activity ([1]; 5 mM metal salt, 50 mM sodium citrate buffer, 5 mM SDS, control without metal ions = 100%, listed as Cu^2+) was 112%. The relative activity [1, 11] was 110 ± 3.9%, the relative activity [1, 12] was 37 ± 2.6% and the relative activity ([1]; 100 mM metal salt, 50 mM sodium citrate buffer, 5 mM SDS, control without metal ions = 100%, listed as Cu^2+) was “drastically reduced”.

In the case of `[Cl][Fe][Cl]` [FeCl2], the relative activity [1, 9] is reported as 87 ± 2.3%, the relative activity ([1]; 1 mM metal salt, 50 mM sodium citrate buffer, 5 mM SDS, control without metal ions = 100%, listed as Fe^2+) is reported as 87% and the relative activity [1, 10] is reported as 74 ± 1.7%. For the same compound, the relative activity [1, 11] was 56 ± 2.0% and the relative activity [1, 12] was 22 ± 6.6%.

`[Cl-].[K+]` [KCl] showed a relative activity [1, 9] of 98 ± 3.8%, a relative activity [1, 10] of 98 ± 1.4% and a relative activity [1, 11] of 96 ± 2.1%. The relative activity [1, 12] was 64 ± 2.8%.

For `O=c1cc(CO)occ1O` [Kojic acid, kojic acid], the “inhibition of enzymatic browning” value ([2]; 10 mM) is given as “effectively inhibiting enzymatic browning”.

In the case of `N[C@@H](CS)C(=O)O` [L-cysteine], the “concentration with complete inhibitory effect” value [3] is given as “around 1 mM”, the “concentration with complete inhibitory effect” value [2] is given as “around 1 mM” and the “concentration with complete inhibitory effect” value [4] is given as “around 1 mM”.

`[Cl-].[Cl-].[Mg+2]` [MgCl2] gave a relative activity [1, 9] of 100 ± 2.7%, a relative activity [1, 10] of 97 ± 1.4% and a relative activity [1, 11] of 95 ± 1.8%. For the same compound, the relative activity [1, 12] was 72 ± 3.4%.

For `[Cl][Mn][Cl]` [MnCl2], the relative activity [1, 9] was 99 ± 2.1%, the relative activity [1, 10] was 92.1 ± 0.84% and the relative activity [1, 11] was 60 ± 3.2%. It also gave a relative activity [1, 12] of 0.0 ± 0.00%.

With `NC(=S)Nc1ccccc1` [N-phenylthiourea] the “concentration that completely inhibited enzymatic activity” value ([5]; pH 7.5, 5 mM SDS) was 50 µM.

With `[Cl-].[Na+]` [NaCl] the relative activity [1] was 101 ± 3.1% and 99 ± 2.3% and 103 ± 2.8% and 88 ± 5.4%.

`O=S(=O)([O-])[O-].[Ni+2]` [NiSO4] showed a relative activity [1, 9] of 103 ± 2.3%, a relative activity [1, 10] of 101.3 ± 0.57% and a relative activity [1, 11] of 92 ± 1.7%. The relative activity [1, 12] was 88 ± 4.3%.

In the case of `CCCCCCCCCCCCOS(=O)(=O)[O-].[Na+]` [SDS, sodium lauryl sulfate], the “increase of OePPO activity versus absence of SDS” value ([6]; 5 mM SDS, phosphate buffer pH 7.5) is reported as about 10 fold, the “OePPO activity compared to the absence of SDS” value ([6]; 100 mM SDS, phosphate buffer pH 7.5) is reported as “three times the activity” and the “optimal SDS concentration for full activation of latent OePPO” value ([6]; phosphate buffer pH 7.5, catechol) is reported as 5 mM. For the same compound, the “SDS concentration for full activation of latent PPO” value [3] was 2 mM, the “SDS concentration necessary to achieve full activity” value [2] was 6.93 mM and the “SDS concentration for full activation of latent PPO” value [7] was 2 mM.

In the case of `[Cl-].[Cl-].[Zn+2]` [ZnCl2], the relative activity [1, 9] is reported as 99 ± 1.2%, the relative activity [1, 10] is reported as 108.9 ± 0.92% and the relative activity ([1]; 5 mM metal salt, 50 mM sodium citrate buffer, 5 mM SDS, control without metal ions = 100%, listed as Zn^2+) is reported as 109%. The relative activity [1, 11] was 107.3 ± 0.54%, the relative activity [1, 12] was 15 ± 5.1% and the relative activity ([1]; 100 mM metal salt, 50 mM sodium citrate buffer, 5 mM SDS, control without metal ions = 100%, listed as Zn^2+) was “drastically reduced”.

For `O=C1O[C@H]([C@@H](O)CO)C(O)=C1O` [ascorbic acid], the IC100 ([5]; pH 7.5, 5 mM SDS) is listed as 1000 µM, the “concentration with complete inhibitory effect” value [3] is listed as “around 1 mM” and the “concentration with complete inhibitory effect” value [2] is listed as “around 1 mM”. The “concentration with complete inhibitory effect” value [4] was “around 1 mM”.

For `O=C(O)CC(O)(CC(=O)O)C(=O)O` [citric acid], the residual activity [3] is listed as “exceeding 80%” and the residual activity [2] is listed as over 60%.

`NCCc1ccc(O)c(O)c1` [dopamine] showed a kcat [8] of 13.98 ± 0.07 s^–1.

For `N[C@@H](CCC(=O)N[C@@H](CS)C(=O)NCC(=O)O)C(=O)O` [glutathione, reduced, reduced glutathione], the IC50 ([5]; 50 mM sodium phosphate buffer pH 7.5, 5 mM SDS, 25 °C, nonlinear regression) is listed as 62 ± 3 µM, the “concentration for complete suppression/inhibition of OePPO activity” value ([5]; pH 7.5, 5 mM SDS) is listed as 1 mM and the “concentration with complete inhibitory effect” value [3] is listed as “around 1 mM”. For the same compound, the “concentration with complete inhibitory effect” value [2] was “around 1 mM” and the “concentration with complete inhibitory effect” value [4] was “around 1 mM”.

For `O=S(O)S(=O)(=O)O` [sodium metabisulfite], the IC100 ([5]; pH 7.5, 5 mM SDS) is given as 1000 µM, the “concentration with complete inhibitory effect” value [3] is given as “around 1 mM” and the “concentration with complete inhibitory effect” value [2] is given as “around 1 mM”. For the same compound, the “concentration with complete inhibitory effect” value [4] was “around 1 mM”.

For `O=C(O)CCC(=O)O` [succinic acid], the residual activity [3] is given as “exceeding 80%” and the residual activity [2] is given as over 60%.

`NCCc1ccc(O)cc1` [tyramine] showed a kcat [8] of 0.093 ± 0.005 s^–1.

With `OCCc1ccc(O)cc1` [tyrosol] the “processed faster than tyramine” value ([8]; monophenolase activity, compared with tyramine) was over 10 times.
